From PMC8348110, “A Novel Peptide Derived from the Transmembrane Domain of Romo1 Is a Promising Candidate for Sepsis Treatment and Multidrug-Resistant Bacteria” (International Journal of Molecular Sciences, 2021)
In brackets after ≈: the same amount, converted by molar mass. Residues, ends and D or L forms follow the SMILES beside them.

How the values were obtained:
[1] = tested on: Staphylococcus aureus ATCC 29213; type: cell-based; settings: ATCC 29213, 1 h, pH 7.4
Protocol: (§1) The minimum bactericidal concentration (MBC) was determined as previously described with minor modifications. Briefly, bacteria were cultured in the mid-log phase and diluted to 5 × 10^5 colony-forming unit (CFU)/mL in 10 mM sodium phosphate buffer (pH 7.4) with a 1% volume of TS broth. They were incubated for 1 h with various peptides which were two-fold diluted serially from 64 μg/mL to 0 μg/mL concentrations in a 96-well plate. The samples were inoculated TS agar plate and incubated overnight at 37 °C. The value of MBC was determined at the lowest concentrations at which no colonies were identified.
(§2) We used the CFU counting method to measure antibacterial activity, with all bacteria cultured to the mid-log phase in an appropriate broth medium. Bacterial CFUs were counted after overnight culture at 37 °C on TS or LB agar plates. The MBC value and antibacterial activity in blood components were determined as previously described. Mouse and human whole blood were collected and diluted with PBS (pH 7.4) to measure the ex vivo antibacterial activity of AMPR-22. For that test, AMPR-22 (10 μg) was added to each whole blood solution and incubated at 37 °C with shaking at 200 rpm. At each time point, it was incubated with bacteria (1 × 10^3 CFU) for 30 min. Each sample was inoculated on an LB agar plate, and CFU counting was performed. To measure the in vivo activity of AMPR-22, 1 × 10^8 CFU of bacteria were injected into BALB/c mice, and an hour later, 10 mg/kg of the test peptides were injected. Blood samples were collected by tail cut, serially diluted with PBS (pH 7.4), and inoculated on LB-agar plates, followed by CFU counting. To estimate the functional half-life of AMPR-22, 40 mg/kg of each tested peptide were injected into mice. Whole blood sampling was performed by cardiac puncture, and the plasma was isolated by centrifugation (2000× g, 15 min). The isolated plasma was incubated with bacteria (1 × 10^3 CFU) for an hour, and then the CFU counting method was performed.

[2] = tested on: Pseudomonas aeruginosa ATCC 27853; type: cell-based; settings: ATCC 27853, 1 h
Protocol: as §1, §2

[3] = tested on: Methicillin-resistant S. aureus (MRSA) ATCC 33591; type: cell-based, Staphylococcus aureus; settings: ATCC 33591, 1 h
Protocol: as §1, §2

[4] = tested on: Carbapenem-resistant P. aeruginosa (CRPA), clinical isolate; type: cell-based, Pseudomonas aeruginosa; settings: 1 h
From the text: Acinetobacter baumannii (ATCC 19606), B. subtilis (ATCC 6633), E. aerogenes (ATCC 13048), E. coli (ATCC 25922), E. faecalis (ATCC 19433), E. faecium (ATCC 19434), K. pneumoniae (ATCC 13883), P. aeruginosa (ATCC 27853), S. aureus (ATCC 29213), S. sindenensis (ATCC 23963), and MRSA (ATCC 33591) were purchased from the American Type Culture Collection (ATCC; Gaithersburg, MD, USA). Streptococcus pneumoniae (NCCP 14585), vancomycin-resistant E. faecium (NCCP 11522), and vancomycin-resistant S. aureus (NCCP 15872) were purchased from the National Culture Collection for Pathogens (NCCP; Cheongju, Korea). The isolation and use of carbapenem-resistant bacterial strains from a patient were approved (2015AN0129) by the Institutional Review Board (IRB) of Korea University Hospital. CRPA, CRKP, and CRAB were clinically isolated in Korea University Hospital (Seoul, Korea). CRPA was confirmed to be resistant to piperacillin, piperacillin-tazobactam, ceftazidime, imipenem, meropenem, gentamicin, amikacin, and ciprofloxacin. CRAB was confirmed to be resistant to piperacillin, piperacillin-tazobactam, cefepime, ceftazidime, imipenem, meropenem, gentamicin, amikacin, and ciprofloxacin. CRKP was confirmed to be resistant to piperacillin-tazobactam, cefepime, ceftazidime, imipenem, gentamicin, and ciprofloxacin. All strains were stored at –80 °C in 50% glycerol and 50% Luria-Bertani (LB) or tryptic soy (TS) broth, grown on LB or TS plates, and aerated at 37 °C.
as §1, §2

human erythrocytes = assay: Hemolysis assay; type: cell-based; settings: 2% erythrocytes in PBS, 1 h 37 °C, absorbance 550 nm; up to / at 256 µg/mL
Protocol: For the hemolytic assay, mouse and human whole blood was diluted with PBS (pH 7.4) and centrifuged for 10 min at 500× g. After removing the supernatant and rinsing the pellet three times with PBS, we resuspended the erythrocytes in PBS at 2% volume. The blood solution was added to the solution of peptides with two-fold serial dilution on a 96-well plate. After incubation for an hour at 37 °C, the plate was centrifuged at 2500× g for 10 min, and the absorbance of the supernatant was measured at 550 nm. The PBS-treated sample was the negative control, and the 0.1% Triton X-100–treated sample was the positive control. To measure white blood cell toxicity, mouse and human PBMCs were freshly isolated as previously described, and 70% ethanol (positive control) or AMPR-22 was administered using two-fold diluted concentrations (0 to 256 μg/mL) for 30 min. To measure cell death, a LIVE/DEAD® fixable green dead cell stain kit (Thermo Fisher Scientific, Waltham, MS, USA) was used following the manufacturer′s instructions, and flow cytometry was performed using a FACS Canto II (BD Biosciences, CA, USA). The toxicity of AMPR-22 was compared with negative (PBS-treated) and positive controls, and the data were analyzed using FlowJo software (Tree Star, OR, USA).

Row | Structure (SMILES) | MBC Value, S. aureus [1] [µg/mL] | MBC Value, P. aeruginosa [2] [µg/mL] | MBC Value, MRSA [3] [µg/mL] | MBC Value, CRPA [4] [µg/mL] | Hemolytic activity against human erythrocytes (human erythrocytes)
1 | CC[C@H](C)[C@H](NC(=O)CNC(=O)[C@H](CCSC)NC(=O)CNC(=O)[C@@H](NC(=O)[C@H](C)NC(=O)[C@H](CCSC)NC(=O)[C@H](Cc1ccccc1)NC(=O)[C@@H](NC(=O)CNC(=O)[C@H](Cc1ccccc1)NC(=O)[C@H](CCCCN)NC(=O)CNC(=O)[C@H](CCCCN)NC(=O)[C@H](CCCCN)NC(=O)[C@H](CCSC)NC(=O)[C@H](CCSC)NC(=O)[C@H](CCCCN)NC(=O)[C@@H](N)CCCCN)[C@@H](C)O)[C@@H](C)CC)C(=O)N[C@@H](CCCNC(=N)N)C(=O)O [d64G] (H-KKMMKKGKFGTFMAIGMGIR-OH) | 2 (≈ 0.885 µM) | 2 (≈ 0.885 µM) | 1 (≈ 0.442 µM) | 4 (≈ 1.77 µM) | –
2 | CC[C@H](C)[C@H](NC(=O)CNC(=O)[C@H](CCSC)NC(=O)CNC(=O)[C@@H](NC(=O)[C@H](C)NC(=O)[C@H](CCSC)NC(=O)[C@H](Cc1ccccc1)NC(=O)[C@@H](NC(=O)CNC(=O)[C@H](Cc1ccccc1)NC(=O)[C@H](CCCCN)NC(=O)CNC(=O)CNC(=O)[C@H](CCCCN)NC(=O)[C@H](CCCCN)NC(=O)[C@H](CCSC)NC(=O)[C@H](CCSC)NC(=O)[C@@H](N)CCCCN)[C@@H](C)O)[C@@H](C)CC)C(=O)N[C@@H](CCCNC(=N)N)C(=O)O [d58K] (H-KMMKKGGKFGTFMAIGMGIR-OH) | 8 (≈ 3.65 µM) | 2 (≈ 0.913 µM) | 2 (≈ 0.913 µM) | 8 (≈ 3.65 µM) | –
3 | CC[C@H](C)[C@H](NC(=O)[C@H](C)NC(=O)[C@H](CCSC)NC(=O)[C@H](Cc1ccccc1)NC(=O)[C@@H](NC(=O)CNC(=O)[C@H](Cc1ccccc1)NC(=O)[C@H](CCCCN)NC(=O)CNC(=O)CNC(=O)[C@H](CCCCN)NC(=O)[C@H](CCCCN)NC(=O)[C@H](CCSC)NC(=O)[C@H](CCSC)NC(=O)[C@H](CCCCN)NC(=O)[C@@H](N)CCCCN)[C@@H](C)O)C(=O)NCC(=O)N[C@@H](CCSC)C(=O)NCC(=O)N[C@@H](CCCNC(=N)N)C(=O)O [d77I] (H-KKMMKKGGKFGTFMAIGMGR-OH) | 8 (≈ 3.63 µM) | 4 (≈ 1.81 µM) | 4 (≈ 1.81 µM) | 8 (≈ 3.63 µM) | –
4 | CC[C@H](C)[C@H](NC(=O)CNC(=O)[C@H](CCSC)NC(=O)[C@@H](NC(=O)[C@H](C)NC(=O)[C@H](CCSC)NC(=O)[C@H](Cc1ccccc1)NC(=O)[C@@H](NC(=O)CNC(=O)[C@H](Cc1ccccc1)NC(=O)[C@H](CCCCN)NC(=O)CNC(=O)CNC(=O)[C@H](CCCCN)NC(=O)[C@H](CCCCN)NC(=O)[C@H](CCSC)NC(=O)[C@H](CCSC)NC(=O)[C@H](CCCCN)NC(=O)[C@@H](N)CCCCN)[C@@H](C)O)[C@@H](C)CC)C(=O)N[C@@H](CCCNC(=N)N)C(=O)O [d74G] (H-KKMMKKGGKFGTFMAIMGIR-OH) | 4 (≈ 1.77 µM) | 4 (≈ 1.77 µM) | 4 (≈ 1.77 µM) | 8 (≈ 3.54 µM) | –
5 | CC[C@H](C)[C@H](NC(=O)CNC(=O)[C@H](CCSC)NC(=O)CNC(=O)[C@@H](NC(=O)[C@H](C)NC(=O)[C@H](CCSC)NC(=O)[C@H](Cc1ccccc1)NC(=O)[C@@H](NC(=O)CNC(=O)[C@H](Cc1ccccc1)NC(=O)[C@@H](NC(=O)CNC(=O)CNC(=O)[C@H](CO)NC(=O)[C@H](CCC(N)=O)NC(=O)[C@H](CCSC)NC(=O)[C@H](CCSC)NC(=O)[C@@H](NC(=O)[C@@H](N)CCCCN)[C@@H](C)O)[C@@H](C)O)[C@@H](C)O)[C@@H](C)CC)C(=O)N[C@@H](CCCNC(=N)N)C(=O)O [AMPR-11] (H-KTMMQSGGTFGTFMAIGMGIR-OH) | – | – | – | – | low hemolytic activity
6 | CC[C@H](C)[C@H](NC(=O)CNC(=O)[C@H](CCSC)NC(=O)CNC(=O)[C@@H](NC(=O)[C@H](C)NC(=O)[C@H](CCSC)NC(=O)[C@H](Cc1ccccc1)NC(=O)[C@@H](NC(=O)CNC(=O)[C@H](Cc1ccccc1)NC(=O)[C@H](CCCCN)NC(=O)CNC(=O)CNC(=O)[C@H](CCCCN)NC(=O)[C@H](CCCCN)NC(=O)[C@H](CCSC)NC(=O)[C@H](CCSC)NC(=O)[C@H](CCCCN)NC(=O)[C@@H](N)CCCCN)[C@@H](C)O)[C@@H](C)CC)C(=O)O [d78R] (H-KKMMKKGGKFGTFMAIGMGI-OH) | 16 (≈ 7.4 µM) | 4 (≈ 1.85 µM) | 4 (≈ 1.85 µM) | 16 (≈ 7.4 µM) | –
7 | CC[C@H](C)[C@H](NC(=O)CNC(=O)[C@H](CCSC)NC(=O)CNC(=O)[C@@H](NC(=O)[C@H](C)NC(=O)[C@H](CCSC)NC(=O)[C@H](Cc1ccccc1)NC(=O)CNC(=O)[C@H](Cc1ccccc1)NC(=O)[C@H](CCCCN)NC(=O)CNC(=O)CNC(=O)[C@H](CCCCN)NC(=O)[C@H](CCCCN)NC(=O)[C@H](CCSC)NC(=O)[C@H](CCSC)NC(=O)[C@H](CCCCN)NC(=O)[C@@H](N)CCCCN)[C@@H](C)CC)C(=O)N[C@@H](CCCNC(=N)N)C(=O)O [d69T] (H-KKMMKKGGKFGFMAIGMGIR-OH) | 2 (≈ 0.902 µM) | 4 (≈ 1.8 µM) | 1 (≈ 0.451 µM) | 4 (≈ 1.8 µM) | –
8 | CC[C@H](C)[C@H](NC(=O)[C@H](C)NC(=O)[C@H](CCSC)NC(=O)[C@H](Cc1ccccc1)NC(=O)[C@@H](NC(=O)CNC(=O)[C@H](Cc1ccccc1)NC(=O)[C@H](CCCCN)NC(=O)CNC(=O)CNC(=O)[C@H](CCCCN)NC(=O)[C@H](CCCCN)NC(=O)[C@H](CCSC)NC(=O)[C@H](CCSC)NC(=O)[C@H](CCCCN)NC(=O)[C@@H](N)CCCCN)[C@@H](C)O)C(=O)NCC(=O)N[C@@H](CCSC)C(=O)N[C@H](C(=O)N[C@@H](CCCNC(=N)N)C(=O)O)[C@@H](C)CC [d76G] (H-KKMMKKGGKFGTFMAIGMIR-OH) | 4 (≈ 1.77 µM) | 4 (≈ 1.77 µM) | 4 (≈ 1.77 µM) | 4 (≈ 1.77 µM) | –
9 | CC[C@H](C)[C@H](NC(=O)CNC(=O)[C@H](CCSC)NC(=O)CNC(=O)[C@@H](NC(=O)[C@H](C)NC(=O)[C@H](CCSC)NC(=O)[C@H](Cc1ccccc1)NC(=O)[C@@H](NC(=O)CNC(=O)[C@H](Cc1ccccc1)NC(=O)CNC(=O)CNC(=O)[C@H](CCCCN)NC(=O)[C@H](CCCCN)NC(=O)[C@H](CCSC)NC(=O)[C@H](CCSC)NC(=O)[C@H](CCCCN)NC(=O)[C@@H](N)CCCCN)[C@@H](C)O)[C@@H](C)CC)C(=O)N[C@@H](CCCNC(=N)N)C(=O)O [d66K] (H-KKMMKKGGFGTFMAIGMGIR-OH) | 8 (≈ 3.65 µM) | 4 (≈ 1.83 µM) | 4 (≈ 1.83 µM) | 4 (≈ 1.83 µM) | –
